Test results from ChEMBL document CHEMBL1131488, “Dihydropyrancarboxamides related to zanamivir: a new series of inhibitors of influenza virus sialidases. 1. Discovery, synthesis, biological activity, and structure-activity relationships of 4-guanidino- and 4-amino-4H-pyran-6-carboxamides” (J Med Chem, 1998).
pIC50: −log10 of the molar value.

Legend:
[1] = system: Mus musculus; experiment: Compound was tested for in vivo efficacy in mouse model of influenza A virus A/Singapore/1/57 at dose of 50 mg/kg.; assay type: functional
[2] = biological target: T1, Neuraminidase (Influenza B virus (strain B/Lee/1940), UniProt P03474); experiment: Inhibition of influenza B virus sialidase activity
T1 sequence (P03474 whole entry): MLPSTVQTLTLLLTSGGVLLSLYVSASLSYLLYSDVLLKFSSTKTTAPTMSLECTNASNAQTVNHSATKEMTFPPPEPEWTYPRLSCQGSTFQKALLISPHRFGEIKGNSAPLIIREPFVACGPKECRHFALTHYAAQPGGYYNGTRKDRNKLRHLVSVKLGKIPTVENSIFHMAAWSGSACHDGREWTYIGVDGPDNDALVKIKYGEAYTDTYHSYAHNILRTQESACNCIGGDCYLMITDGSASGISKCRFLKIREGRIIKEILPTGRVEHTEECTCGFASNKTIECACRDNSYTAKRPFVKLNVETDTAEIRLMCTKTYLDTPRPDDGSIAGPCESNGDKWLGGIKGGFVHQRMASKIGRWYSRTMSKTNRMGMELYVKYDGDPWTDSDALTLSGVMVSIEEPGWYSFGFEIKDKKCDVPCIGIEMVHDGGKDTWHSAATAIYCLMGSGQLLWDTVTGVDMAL

[3] = biological target: Neuraminidase (Influenza A virus (A/Puerto Rico/8/1934(H1N1)), UniProt P03468); experiment: Inhibition of influenza A virus sialidase activity
Sequence of Neuraminidase (Influenza A virus (A/Puerto Rico/8/1934(H1N1)), UniProt P03468) (P03468 whole entry): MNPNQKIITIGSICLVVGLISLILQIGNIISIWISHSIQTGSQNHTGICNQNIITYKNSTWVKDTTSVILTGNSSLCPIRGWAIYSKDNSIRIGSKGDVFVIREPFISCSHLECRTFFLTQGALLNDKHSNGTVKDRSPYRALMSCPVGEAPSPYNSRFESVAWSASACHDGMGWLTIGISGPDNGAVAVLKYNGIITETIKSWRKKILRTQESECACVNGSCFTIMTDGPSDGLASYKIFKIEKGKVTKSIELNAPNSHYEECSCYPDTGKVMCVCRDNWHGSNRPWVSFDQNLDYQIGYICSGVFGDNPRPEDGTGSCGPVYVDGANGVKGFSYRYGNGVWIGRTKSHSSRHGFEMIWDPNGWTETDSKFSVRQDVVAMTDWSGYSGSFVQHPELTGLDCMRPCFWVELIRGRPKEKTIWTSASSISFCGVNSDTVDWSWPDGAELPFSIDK

[4] = biological target: Neuraminidase (Influenza A virus (A/Puerto Rico/8/1934(H1N1)), UniProt P03468); experiment: Inhibition of sialidase (Flu A, 5 nM)
[5] = system: Mus musculus; experiment: Compound was tested for concentration of intranasally administered drug (1 mg/kg) which reduces virus titer by 90%; assay type: functional; conditions: inhaled or nasal
[6] = system: Mus musculus; experiment: Compound was tested for in vivo efficacy in mouse model of influenza A virus A/Singapore/1/57 at dose of 0.1 mg/kg.; assay type: functional
[7] = system: Mus musculus; experiment: Compound was tested for in vivo efficacy in mouse model of influenza A virus A/Singapore/1/57 at dose of 1 mg/kg.; assay type: functional
[8] = t1/2, plasma elimination half life, the time taken for the plasma concentrations to fall by one half, once distribution is complete at a dose of 10 mg/kg; assay type: ADME, organism-based; design: dose 10 mg/kg
[9] = Vss, volume of distribution at steady state at a dose of 10 mg/kg; assay type: ADME, organism-based; design: dose 10 mg/kg; conditions: in vivo, read-out: Vss
[10] = Clp, plasma clearance at a dose of 10 mg/kg; assay type: ADME, organism-based; design: dose 10 mg/kg; conditions: read-out: Clp
[11] = biological target: Neuraminidase (Influenza A virus (A/Puerto Rico/8/1934(H1N1)), UniProt P03468)
[12] = biological target: Neuraminidase (Influenza A virus (A/Puerto Rico/8/1934(H1N1)), UniProt P03468); remark: listed apart in the source
[13] = biological target: Neuraminidase (Influenza A virus (A/Puerto Rico/8/1934(H1N1)), UniProt P03468); remark: listed apart in the source
[14] = biological target: Neuraminidase (Influenza A virus (A/Puerto Rico/8/1934(H1N1)), UniProt P03468); remark: listed apart in the source
[15] = system: Influenza A virus; experiment: Compound was tested for concentration of intranasally administered (in) (10 mg/kg) which reduces virus titer by 90%; assay type: functional; conditions: inhaled or nasal
[16] = system: Influenza A virus; experiment: Compound was tested for in vivo efficacy in mouse model of influenza A virus A/Singapore/1/57 at dose of 100 mg/kg. (i.p.); assay type: functional; conditions: route intraperitoneal
[17] = system: Influenza A virus; experiment: Compound was tested for in vivo efficacy in mouse model of influenza A virus A/Singapore/1/57 at dose of 10 mg/kg. (in); assay type: functional
[18] = biological target: Neuraminidase (Influenza A virus (A/Puerto Rico/8/1934(H1N1)), UniProt P03468); remark: listed apart in the source
[19] = biological target: T1, Neuraminidase
[20] = biological target: T1, Neuraminidase; remark: listed apart in the source
[21] = system: Mus musculus; experiment: Compound was tested for in vivo efficacy in mouse model of influenza A virus A/Singapore/1/57 at dose of 0.5 mg/kg (in); assay type: functional
[22] = system: Mus musculus; experiment: Compound was tested for in vivo efficacy in mouse model of influenza A virus A/Singapore/1/57 at dose of 50 mg/kg (ip); assay type: functional
[23] = Vss, volume of distribution at steady state at a dose of 50 mg/kg; assay type: ADME, organism-based; design: dose 50 mg/kg; conditions: in vivo, read-out: Vss
[24] = t1/2, plasma elimination half life, the time taken for the plasma concentrations to fall by one half, once distribution is complete at a dose of 50 mg/kg; assay type: ADME, organism-based; design: dose 50 mg/kg
[25] = system: Mus musculus; experiment: Compound was tested for concentration of intranasally administered drug (0.5 mg/kg) which reduces virus titer by 90%; assay type: functional; conditions: inhaled or nasal
[26] = Clp, plasma clearance at a dose of 50 mg/kg; assay type: ADME, organism-based; design: dose 50 mg/kg; conditions: read-out: Clp
[27] = biological target: T1, Neuraminidase; experiment: Inhibitory activity against sialidase (influenza B virus by plaque reduction assay)
[28] = system: Mus musculus; experiment: Compound was tested for concentration of intranasally administered drug (10 mg/kg) which reduces virus titer by 90%; assay type: functional; conditions: inhaled or nasal
[29] = system: Mus musculus; experiment: Compound was tested for in vivo efficacy in mouse model of influenza A virus A/Singapore/1/57 at dose of 10 mg/kg.; assay type: functional
[30] = biological target: T1, Neuraminidase; experiment: Inhibitory activity against sialidase of influenza B virus by plaque reduction assay

CCN(CC)C(=O)[C@@H]1OC(C(=O)O)=C[C@H](NC(=N)N)[C@H]1NC(C)=O
Reduction in virus titer [1]: 89%

CC(=O)N[C@@H]1[C@@H](N)C=C(C(=O)O)O[C@H]1C(=O)N(CCc1ccccc1)CCN(C)C
pIC50 [2]: < 3.52
pIC50 [3]: < 3.52

CC(=O)N[C@@H]1[C@@H](NC(=N)N)C=C(C(=O)O)O[C@H]1C(=O)NCCN
pIC50 [4]: 4.70

CC(=O)N[C@@H]1[C@@H](N)C=C(C(=O)O)O[C@H]1C(=O)NCCN
pIC50 [4]: < 3.41

CCCN(CCC)C(=O)[C@@H]1OC(C(=O)O)=C[C@H](NC(=N)N)[C@H]1NC(C)=O
Reduction in virus titer [1]: 86%
ED90 [5]: < 0.01 mg/kg
Reduction in virus titer [6]: 99.3%
Reduction in virus titer [7]: 99.93%
half-life [8]: 22.2 min
Vd [9]: 0.5 L/kg
clearance [10]: 6 mL/min/kg

CC(=O)N[C@@H]1[C@@H](N)C=C(C(=O)O)O[C@H]1C(=O)N(CCc1ccccc1)CC(=O)O
pIC50 [2]: 4.12
pIC50 [3]: 3.89

CCCN(CCc1ccc(C(C)C)cc1)C(=O)[C@@H]1OC(C(=O)O)=C[C@H](N)[C@H]1NC(C)=O
pIC50 [2]: 5.21
pIC50 [3]: 7.92

CCCN(CCc1ccc(O)cc1)C(=O)[C@@H]1OC(C(=O)O)=C[C@H](N)[C@H]1NC(C)=O
pIC50 [2]: 5.72
pIC50 [3]: 8.05

CCCN(C)C(=O)[C@@H]1OC(C(=O)O)=C[C@H](N)[C@H]1NC(C)=O
IC50 [11]: 180 nM
IC50 [12]: 110 nM
pIC50 [13]: 5.33
IC50 [14]: 3700 nM

CCCCCCCCCN(CCC)C(=O)[C@@H]1OC(C(=O)O)=C[C@H](N)[C@H]1NC(C)=O
half-life [8]: 52.2 min
ED90 [15]: > 1 mg/kg
Vd [9]: 1.3 L/kg
clearance [10]: 17.9 mL/min/kg
Reduction in virus titer [16]: 71%
Reduction in virus titer [17]: 96%

CC(=O)N[C@@H]1[C@@H](N)C=C(C(=O)O)O[C@H]1C(=O)N(CCO)CCc1ccccc1
pIC50 [2]: 4.00
pIC50 [3]: 7.92

CCC1CCC(CC)N1C(=O)[C@@H]1OC(C(=O)O)=C[C@H](N)[C@H]1NC(C)=O (some centres not stated)
pIC50 [2]: 4.59
pIC50 [3]: 6.54

CCCN(CCc1ccc(Cc2ccccc2)cc1)C(=O)[C@@H]1OC(C(=O)O)=C[C@H](N)[C@H]1NC(C)=O
pIC50 [2]: 5.28
pIC50 [3]: 6.57

CC(=O)N[C@@H]1[C@@H](N)C=C(C(=O)O)O[C@H]1C(=O)N1C(C)CCN1C (some centres not stated)
pIC50 [2]: 4.89
pIC50 [18]: 7.28
pIC50 [3]: 6.68
pIC50 [19]: 4.70

C=CCN(CC=C)C(=O)[C@@H]1OC(C(=O)O)=C[C@H](N)[C@H]1NC(C)=O
pIC50 [20]: 5.08
pIC50 [4]: 7.40

CCCN(CCc1ccccc1OC)C(=O)[C@@H]1OC(C(=O)O)=C[C@H](N)[C@H]1NC(C)=O
pIC50 [2]: 4.92
pIC50 [3]: 8.05

CCCN(CCc1ccc(-c2ccccc2)cc1)C(=O)[C@@H]1OC(C(=O)O)=C[C@H](N)[C@H]1NC(C)=O
pIC50 [3]: 8.70

CCN(CC)C(=O)[C@@H]1OC(C(=O)O)=C[C@H](N)[C@H]1NC(C)=O
IC50 [11]: 5 nM
pIC50 [2]: 6.44
IC50 [12]: 20 nM
pIC50 [13]: 7.07
IC50 [14]: 40 nM

CC(=O)N[C@@H]1[C@@H](N)C=C(C(=O)O)O[C@H]1C(=O)N(CCCO)CCc1ccccc1
pIC50 [2]: < 3.44
pIC50 [3]: 5.52

CC(=O)N[C@H]1[C@H]([C@H](O)[C@H](O)CO)OC(C(=O)O)=C[C@@H]1NC(=N)N [ZANAMIVIR]
Reduction in virus titer [21]: 99.5%
Reduction in virus titer [22]: 96.2%
Vd [23]: 0.3 L/kg
half-life [24]: 9.6 min
ED90 [25]: 0.03 mg/kg
clearance [26]: 24.9 mL/min/kg

CC(=O)N[C@@H]1[C@@H](N)C=C(C(=O)O)O[C@H]1C(=O)N1CCCC1C (some centres not stated)
pIC50 [2]: 3.68
pIC50 [3]: 6.51

CCCN(CCCc1ccccc1)C(=O)[C@@H]1OC(C(=O)O)=C[C@H](N)[C@H]1NC(C)=O
pIC50 [2]: 4.34
pIC50 [3]: 7.74

CCCN(CCc1ccc(OC)cc1)C(=O)[C@@H]1OC(C(=O)O)=C[C@H](N)[C@H]1NC(C)=O
pIC50 [2]: 5.48
pIC50 [3]: 8.10

CC(=O)N[C@@H]1[C@@H](N)C=C(C(=O)O)O[C@H]1C(=O)N(CCc1ccccc1)C1CC1
pIC50 [2]: 4.44
pIC50 [3]: 7.34

CC(=O)N[C@@H]1[C@@H](N)C=C(C(=O)O)O[C@H]1C(=O)N(CCc1ccccc1)CC(N)=O
pIC50 [2]: 4.51
pIC50 [3]: 4.72

CCCN(CCc1cccc(OC)c1)C(=O)[C@@H]1OC(C(=O)O)=C[C@H](N)[C@H]1NC(C)=O
pIC50 [2]: 5.49
pIC50 [3]: 8.30

CCCN(CCc1ccc(Cl)cc1Cl)C(=O)[C@@H]1OC(C(=O)O)=C[C@H](N)[C@H]1NC(C)=O
pIC50 [2]: 4.80
pIC50 [3]: 8.22

CC(=O)N[C@@H]1[C@@H](N)C=C(C(=O)O)O[C@H]1C(=O)N(CCc1ccccc1)CC(C)C
pIC50 [3]: 7.85

CC(=O)N[C@@H]1[C@@H](N)C=C(C(=O)O)O[C@H]1C(=O)N(CCc1ccccc1)C(C)C
pIC50 [2]: 5.10
pIC50 [3]: 8.10

CC(=O)N[C@@H]1[C@@H](N)C=C(C(=O)O)O[C@H]1C(=O)N1CCCC1
IC50 [27]: > 100 µg/mL
pIC50 [3]: 5.54

CC(=O)N[C@@H]1[C@@H](N)C=C(C(=O)O)O[C@H]1C(=O)N(CCN)CCc1ccccc1
pIC50 [2]: 3.59
pIC50 [3]: 4.33

CCCN(CC)C(=O)[C@@H]1OC(C(=O)O)=C[C@H](N)[C@H]1NC(C)=O
pIC50 [2]: 6.39

CCCN(CCC)C(=O)[C@@H]1OC(C(=O)O)=C[C@H](N)[C@H]1NC(C)=O
IC50 [11]: 3 nM
ED90 [28]: 2.1 mg/kg
IC50 [12]: 20 nM
pIC50 [13]: 7.52
Reduction in virus titer [7]: 82%
Vd [23]: 0.4 L/kg
half-life [24]: 21 min
IC50 [14]: 8 nM
Reduction in virus titer [29]: 99.84%
clearance [26]: 12.5 mL/min/kg

CC(=O)N[C@@H]1[C@@H](N)C=C(C(=O)O)O[C@H]1C(=O)NCC(=O)O
pIC50 [4]: < 3.32

CCCN(CCc1cccc(O)c1)C(=O)[C@@H]1OC(C(=O)O)=C[C@H](N)[C@H]1NC(C)=O
pIC50 [2]: 5.64
pIC50 [3]: 8.52

CC(=O)N[C@@H]1[C@@H](N)C=C(C(=O)O)O[C@H]1C(=O)NC1CCCCC1
pIC50 [20]: < 3.35
pIC50 [4]: 4.72

CC(=O)N[C@@H]1[C@@H](N)C=C(C(=O)O)O[C@H]1C(=O)N(CCN=[N+]=[N-])CCc1ccccc1
pIC50 [18]: 8.05
pIC50 [19]: 4.55

CCCN(Cc1ccccc1)C(=O)[C@@H]1OC(C(=O)O)=C[C@H](N)[C@H]1NC(C)=O
pIC50 [2]: 3.74
pIC50 [3]: 5.38

CCCN(C)C(=O)[C@@H]1OC(C(=O)O)=C[C@H](NC(=N)N)[C@H]1NC(C)=O
IC50 [11]: 3 nM
ED90 [28]: < 1 mg/kg
Reduction in virus titer [1]: 74.5%
IC50 [12]: 28 nM
pIC50 [13]: 7.59
Reduction in virus titer [7]: 95%
Vd [23]: 0.3 L/kg
half-life [24]: 12.6 min
IC50 [14]: 5.6 nM
Reduction in virus titer [29]: 99.9%
clearance [26]: 17.8 mL/min/kg

CC(=O)N[C@@H]1[C@@H](N)C=C(C(=O)O)O[C@H]1C(=O)NCCc1ccccc1
IC50 [30]: > 100 µg/mL

CCCN(CCc1cccc(-c2ccccc2)c1)C(=O)[C@@H]1OC(C(=O)O)=C[C@H](N)[C@H]1NC(C)=O
pIC50 [2]: 5.35
pIC50 [3]: 8.70

CC(=O)N[C@@H]1[C@@H](N)C=C(C(=O)O)O[C@H]1C(=O)NCCO
pIC50 [4]: 3.38
